Test results from patent publication US6759399B1, “Use of antimineralocorticoid compounds against narcotic withdrawal syndrome” (Aventis Pharma S.A., priority 1995, dated 2004).
“And” between values parts separate entries of the source, which are not always exact repeats. Equal entries are not always repeated.

Columns and labels:
[1] = test system: morphinic withdrawal syndrome induced by naloxone in mice; test: Withdrawal syndrome induced by naloxone in mice treated with morphine (jumping test); conditions: for % protection: relative to the morphine group
[2] = test system: self-administration of cocaine in rats; test: Dependence induced by cocaine: self-administration of cocaine in trained rats; format: in vivo; conditions: 1 hour before session
Protocol: The anti-mineralocorticoid product AM2 was tested on 5 rats which were trained in the self-administration of cocaine during daily periods of one hour.
These rats were pre-treated 1 hour before the start of the self-administration sessions.
The product AM2 dissolved in a saline solution was administered by intra-peritoneal route. The doses range from 10 to 100 mg/kg.

[3] = antimineralocorticoid alone 4 × 10 mg/kg p.o., no morphine, naloxone 100 mg/kg i.p.
[4] = antimineralocorticoid alone 4 × 20 mg/kg p.o., no morphine, naloxone 100 mg/kg i.p.
[5] = morphine 799 mg/kg s.c. + antimineralocorticoid 4 × 10 mg/kg p.o., naloxone 100 mg/kg i.p.
[6] = morphine 799 mg/kg s.c. + antimineralocorticoid 4 × 10 mg/kg p.o.
[7] = morphine 799 mg/kg s.c. + antimineralocorticoid 4 × 20 mg/kg p.o., naloxone 100 mg/kg i.p.
[8] = morphine 799 mg/kg s.c. + antimineralocorticoid 4 × 20 mg/kg p.o.

SMILES	Number of jumps/10 minutes (m ± sem) [1, 3] [jumps/10 minutes]	Number of jumps/10 minutes (m ± sem) [1, 4] [jumps/10 minutes]	Number of jumps/10 minutes (m ± sem) [1, 5] [jumps/10 minutes]	% protection [1, 6] [%]	Number of jumps/10 minutes (m ± sem) [1, 7] [jumps/10 minutes]	% protection [1, 8] [%]	Number of jumps/10 minutes (m ± sem) ([1]; antimineralocorticoid alone 4 × 50 mg/kg p.o., no morphine, naloxone 100 mg/kg i.p.) [jumps/10 minutes]	Number of jumps/10 minutes (m ± sem) ([1]; morphine 799 mg/kg s.c. + antimineralocorticoid 4 × 50 mg/kg p.o., naloxone 100 mg/kg i.p.) [jumps/10 minutes]	% protection ([1]; morphine 799 mg/kg s.c. + antimineralocorticoid 4 × 50 mg/kg p.o.) [%]	effect on the self-administration of cocaine ([2]; pre-treatment with 10 or 20 mg/kg intra-peritoneal)	effect on the self-administration of cocaine ([2]; pre-treatment with 50 or 75 mg/kg intra-peritoneal)	Number of jumps/10 minutes (m ± sem) ([1]; morphine alone 799 mg/kg s.c. (cumulative over 4 days), naloxone 100 mg/kg i.p. on day 4)
CC(=O)S[C@@H]1CC2=CC(=O)CC[C@]2(C)[C@H]2CC[C@@]3(C)[C@@H](CC[C@@]34CCC(=O)O4)[C@H]12 [AM1, γ-lactone of 7α-acetylthio-17β-hydroxy-3-oxo-17α-pregn-4-ene-21-carboxylic acid]	3 ± 2	11 ± 4	51 ± 7	−33	77 ± 8	−32	–	–	–	–	–	–
CCC[C@@H]1CC2=CC(=O)CC[C@]2(C)[C@H]2CC[C@@]3(C)[C@@H](CC[C@@]3(O)CCC(=O)[O-])[C@H]12.[K+] [AM2, potassium 17β-hydroxy 3-oxo 7α-propyl-(17α)-pregn-4-ene-21-carboxylate]	2 ± 2	4 ± 4	76 ± 16	−25	51 ± 8	−48	3 ± 2	61 ± 8	−40	little or no effect	significant reduction	–
CN1CC[C@]23c4c5ccc(O)c4O[C@H]2[C@@H](O)C=C[C@H]3[C@H]1C5 [Morphine, morphine]	–	–	–	–	–	–	–	–	–	–	–	114 ± 8 jumps/10 minutes and 76 ± 15 jumps/10 minutes and 102 ± 10 jumps/10 minutes and 99 ± 13 jumps/10 minutes
